According to paper PMC3433420 (PLoS ONE, 2012):
Residues, ends and D or L forms follow the SMILES beside them.

Legend:
[1] = biological target: T1, PLCG1-C SH2 domain (Homo sapiens, UniProt P19174); assay: biochemical; format: binding; settings: high-confidence ErbB interactions
T1 construct: The 6X His-tagged SH2 domain proteins used in the assay, PLCG1-C, SHC4, VAV2; thioredoxin; made in house; host or cells: E. coli BL21(DE3)pLysS
T1 sequence (P19174 668-756 limits assumed): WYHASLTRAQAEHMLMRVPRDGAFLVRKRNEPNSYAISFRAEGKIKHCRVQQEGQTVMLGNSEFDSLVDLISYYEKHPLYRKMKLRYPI

[2] = biological target: T2, PLCG1-NC tandem SH2 domains (Homo sapiens, UniProt P19174); assay: FP saturation binding assay; settings: protein PLCG1-NC; FP, high-confidence ErbB interactions; mean of replicate hits
T2 construct: the tandem protein was included in our analysis with all internal amino acids linking the domains; 6X His; thioredoxin; made in house; host or cells: E. coli BL21(DE3)pLysS
T2 sequence (P19174 550-756 limits assumed): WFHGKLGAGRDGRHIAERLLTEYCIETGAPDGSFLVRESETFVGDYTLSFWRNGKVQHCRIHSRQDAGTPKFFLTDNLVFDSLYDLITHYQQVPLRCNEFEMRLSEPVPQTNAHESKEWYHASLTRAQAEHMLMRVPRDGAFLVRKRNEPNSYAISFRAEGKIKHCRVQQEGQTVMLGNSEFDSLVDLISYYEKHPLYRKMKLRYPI
Procedure: (See Figure 1A) Rhodamine-labeled peptides were dissolved in assay buffer (20 mM HEPES, 100 mM KCl, 0.1% Tween-20, 5 mM DTT, pH 7.8), diluted to a concentration of 20 nM, and plated into black 384-well plates (Corning, Corning, NY) at 5 µL/well using a Perkin Elmer EP3 pipetting workstation (V&P Scientific, Inc., San Diego, CA). SH2, PTB, and thioredoxin control proteins were plated into the first column of 2 mL 96-well plates (Corning) at a concentration of 20 µM and serially diluted 1∶2 into freezing buffer (300 mM NaCl, 50 mM Na2PO4, pH 8, 20% glycerol v/v) eleven times using a Tecan Freedom EVO 100 workstation (Tecan, Männedorf, Switzerland). For the interaction assay, 5 µL of each of the twelve protein concentrations was added to the peptide-containing 384-well plates via the EP3 resulting in a protein dilution range of 0.002–10 µM and a final volume of 10 µL; peptide concentration was fixed at 10 nM. […] Experimental values were output as millipolarization (mP) units and imported into MATLAB (The MathWorks, Inc., Natick, MA) in which equation (1) was used to determine dissociation constants (KDs) for each protein/peptide pairing by least squares nonlinear regression. [drawing 1] (1)
FP was described by the following equation: P=Iparallel-IperpendicularIparallel+Iperpendicular, where “P” denotes polarization, and “I” denotes the fluorescent intensity relative to the plane of incident light. Experimental values were output as millipolarization (mP) units and imported into MATLAB where the following equation was used to determine dissociation constants (KDs) for each protein/peptide pairing by least squares nonlinear regression:
Pobs=Pmax∙ProteinKD+Protein [picture] (1)
Peptides were initially tested for systematic plate effects across protein dilutions and nonspecific binding to thioredoxin by linear regression analysis and any effects were regressed out. The median baseline control polarization value for each plate was then subtracted from each data point to make each binding curve intersect at zero. Plates with excessive variation in baseline control polarizations on both a global and run-specific manner (Dixon’s Q test, p < 0.05) were excluded from further analysis. Outliers in each binding curve were identified and removed using an iterative procedure as follows. The residuals for each fit were used to calculate a global standard deviation of the residuals (GSDR) for each concentration of SH2 domain over all interactions, and individual data points with residuals < or > two GSDR from the global mean residual were flagged as outliers. The outlier with the largest residual from each interaction was removed and nonlinear regression was again performed. This procedure was repeated if additional outliers were identified for an interaction, discarding the interaction if the number of outliers exceeded three. […] In order to further control our false positive rate against hidden confounding variables producing binding artifacts, we sought to determine whether there was a significant relationship between the strength of an interaction and its technical replication rate at our stringent significance and filtering thresholds. We performed logistic regression on the proportion of successful replicates for each interaction query against KD for all interactions (Figure S15A). […] “High-confidence” FP interactions are defined as those having 1 - P(Observed Replication Rate | Expectation) > 0.5 and that have replicated at least twice across independent FP runs. […] The compiled FP data were organized into heatmaps generated by MATLAB and relative binding strength (µM). Peptides without at least one positive hit were classified as “no interaction” if there was no homologous sequence (i.e. identical at the +1 to +4 positions relative to the phosphotyrosine) that produced a positive interaction within the ErbB receptor family.

[3] = biological target: T3, RASA1-N SH2 domain (Homo sapiens, UniProt P20936); assay: FP saturation binding assay
T3 sequence (P20936 181-272 limits assumed): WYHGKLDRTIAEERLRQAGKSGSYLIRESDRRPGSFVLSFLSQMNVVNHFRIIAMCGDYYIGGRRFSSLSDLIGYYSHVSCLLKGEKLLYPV

CC(C)C[C@H](NC(=O)[C@H](Cc1ccc(OP(=O)(O)O)cc1)NC(=O)[C@H](CCC(=O)O)NC(=O)[C@H](C)NC(=O)[C@H](CC(N)=O)NC(=O)[C@@H](N)CCC(=O)O)C(=O)N[C@@H](CCCNC(=N)N)C(=O)N[C@H](C(=O)N[C@@H](C)C(=O)N1CCC[C@H]1C(=O)N[C@@H](CCC(N)=O)C(=O)N[C@@H](CO)C(=O)N[C@@H](CC(=O)O)C(=O)O)C(C)C [ErbB1 1197 13-mer] (HELM PEPTIDE1{E.N.A.E.[O=C([C@H](Cc1ccc(OP(=O)(O)O)cc1)N[*:1])[*:2]].L.R.V.A.P.Q.S.D}$$$$V2.0)
Kd ([1]; Protein PLCG1-C, FP saturation binding, mean over replicate hits): 5.67 µM

CC(C)C[C@H](NC(=O)[C@H](Cc1ccc(OP(=O)(O)O)cc1)NC(=O)[C@H](CCC(=O)O)NC(=O)[C@H](CCC(N)=O)NC(=O)[C@H](CCCCN)NC(=O)[C@@H]1CCCN1)C(=O)N[C@@H](CC(N)=O)C(=O)N1CCC[C@H]1C(=O)N[C@H](C(=O)N[C@@H](CCC(=O)O)C(=O)N[C@@H](CCC(=O)O)C(=O)N[C@@H](CC(N)=O)C(=O)N[C@@H](CC(=O)O)C(=O)O)C(C)C [ErbB4 1162 13-mer] (HELM PEPTIDE1{P.K.Q.E.[O=C([C@H](Cc1ccc(OP(=O)(O)O)cc1)N[*:1])[*:2]].L.N.P.V.E.E.N.D}$$$$V2.0)
Kd [2]: 5.31 µM
Kd [3]: 2.9 µM

CC(C)C[C@H](NC(=O)[C@H](CO)NC(=O)[C@H](Cc1ccccc1)NC(=O)[C@H](CCC(=O)O)NC(=O)[C@H](CO)NC(=O)[C@H](CC(C)C)NC(=O)[C@H](Cc1ccc(OP(=O)(O)O)cc1)NC(=O)[C@H](CCC(=O)O)NC(=O)[C@@H]1CCCN1C(=O)[C@H](CC(N)=O)NC(=O)[C@@H](N)CCC(=O)O)C(=O)N[C@@H](CCCCN)C(=O)N[C@@H](CC(=O)O)C(=O)O [ErbB4 1284 13-mer] (HELM PEPTIDE1{E.N.P.E.[O=C([C@H](Cc1ccc(OP(=O)(O)O)cc1)N[*:1])[*:2]].L.S.E.F.S.L.K.D}$$$$V2.0)
Kd ([1]; protein PLCG1-C, mean of replicate hits): 3.68 µM
